Reference: PMC8359193, “Summary of reference chemicals evaluated by the fish short‐term reproduction assay, OECD TG229, using Japanese Medaka, Oryzias latipes” (Journal of Applied Toxicology, 2021)
“Also recorded” adds a separate entry of the source.

Legend:
[1] = system: Japanese medaka (Oryzias latipes); experiment: Fish short-term reproduction assay (FSTRA, OECD TG229), 21-day flow-through exposure; conditions: for Fertility rate (%) / Mortality (%) Female / Mortality (%) Male / Number of fertilized eggs / Number of total eggs / SSC Female / SSC Male / VTG (ng/mg of liver) Female / VTG (ng/mg of liver) Male: 21 days; for GSI Female / GSI Male / HSI Female / HSI Male / Length Female / Length Male / Weight Female / Weight Male: at completion of exposure
Outline: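 Run to OECD TG229: mature NIES-R medaka pairs (3♂/3♀ per vessel, 4 vessels per treatment plus dilution water control) were dosed by continuous flow-through for 21 days. Test concentrations were spaced 2- to 5-fold. Daily spawned eggs were counted under the microscope for fertilized versus unfertilized.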

Japanese medaka = conditions: MMT, ref Flynn et al. (2017), cited from earlier work
fathead minnow = system: fathead minnow; parameters: method as in US EPA, 2007; conditions: three participating laboratories; ref US EPA, 2007; cited from earlier work
medaka ARβ (mARβ) = medaka ARβ (mARβ) (Oryzias latipes, UniProt D1MV73); experiment: Medaka ARβ reporter gene assay (RGA), antagonist assay with 50 nM 11KT, HepG2 cells; format: cell-based, Japanese medaka (Oryzias latipes); conditions: 50 nM 11KT-induced mARβ activity
Experimental: To support interpretation of the biological effects observed in the FSTRA studies, in vitro RGAs using medaka Esr1 (mEsr1) and medaka ARβ (mARβ) were performed for the 16 test chemicals. In the present study, Esr1 and ARβ, which are ancestral subtypes among Esrs and ARs in Japanese medaka, were selected based on the phylogenetical analyses of Esr and AR with each receptor RGAs (Ogino et al., [2016], [2018]; Tohyama et al., [2015]).
The mARβ RGA in which the agonist and the antagonist assays were performed as same as the mEsr1 RGA was carried out according to the methods previously reported by Lange et al. ([2015]). For the assays, human liver cancer cell line, HepG2, was used as the host cells, and mARβ/pcDNA3.1, MMTV‐Luc, and pRL‐TK‐Rlu were used as mARβ expression vector, reporter vector, and internal control vector, respectively. Other materials and methods, for example, operating procedure, reagents, and incubation conditions, were almost the same as the mEsr1 RGA previously described beside that 11KT (Sigma‐Aldrich, purity 99.0%), a main AR ligand in fish, was competitively spiked at 50 nM into the test medium with test chemicals in antagonist assay. In the agonist and the antagonist assays, 11KT and 2‐hydroxyflutamide (2HFLT; Sigma‐Aldrich, purity 98.5%) were used as positive controls, respectively.
Effect concentrations, that is, EC50 (a half maximal effective concentration) in the agonist assay and IC50 (a half maximal inhibitory concentration) in the antagonist assay, were estimated by nonlinear curve fitting (e.g., three parameters logistic regression curve) using GraphPad Prism (GraphPad Software Inc., La Jolla, CA, USA).

medaka ARβ (mARβ), sequence (D1MV73 entry or part of it): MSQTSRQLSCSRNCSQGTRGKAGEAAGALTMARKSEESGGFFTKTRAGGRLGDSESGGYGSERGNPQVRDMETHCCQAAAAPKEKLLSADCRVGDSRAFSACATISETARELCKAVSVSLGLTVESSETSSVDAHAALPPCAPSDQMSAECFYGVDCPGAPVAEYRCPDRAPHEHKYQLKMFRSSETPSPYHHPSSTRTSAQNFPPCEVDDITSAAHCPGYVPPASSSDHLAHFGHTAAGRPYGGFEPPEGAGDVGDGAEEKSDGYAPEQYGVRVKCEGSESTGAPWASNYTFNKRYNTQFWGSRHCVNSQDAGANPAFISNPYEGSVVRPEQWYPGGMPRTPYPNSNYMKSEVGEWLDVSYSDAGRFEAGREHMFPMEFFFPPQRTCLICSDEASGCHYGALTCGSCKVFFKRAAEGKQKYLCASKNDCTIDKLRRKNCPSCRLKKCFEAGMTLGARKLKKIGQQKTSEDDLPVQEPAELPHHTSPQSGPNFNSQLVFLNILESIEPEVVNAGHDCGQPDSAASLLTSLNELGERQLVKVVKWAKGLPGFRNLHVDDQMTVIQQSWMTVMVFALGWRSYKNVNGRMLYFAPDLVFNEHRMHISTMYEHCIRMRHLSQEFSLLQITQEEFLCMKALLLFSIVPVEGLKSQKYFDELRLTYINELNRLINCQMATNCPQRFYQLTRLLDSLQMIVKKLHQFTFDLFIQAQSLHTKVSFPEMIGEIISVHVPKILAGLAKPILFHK

C=CC1(C)OC(=O)N(c2cc(Cl)cc(Cl)c2)C1=O (centres unmarked) [VCZ, Vinclozolin]
effect on fertility rate, in words ([1]; 21-day exposure): significant decrease; also recorded: significant reduction
Fertility rate (%) ([1]; measured conc. 14.5 μg/L): 95%
Mortality (%) Female ([1]; measured conc. 14.5 μg/L): 0%
Mortality (%) Male ([1]; measured conc. 14.5 μg/L): 0%
Number of fertilized eggs ([1]; measured conc. 14.5 μg/L): 22
Number of total eggs ([1]; measured conc. 14.5 μg/L): 24 ± 2.6 /female/day
SSC Female ([1]; measured conc. 14.5 μg/L): 0 ± 0
SSC Male ([1]; measured conc. 14.5 μg/L): 108 ± 18
VTG (ng/mg of liver) Female ([1]; measured conc. 14.5 μg/L): 886 ± 300 ng/mg of liver
VTG (ng/mg of liver) Male ([1]; measured conc. 14.5 μg/L): 7.5 ± 7.2 ng/mg of liver
GSI Female ([1]; measured conc. 14.5 μg/L): 11.8%
GSI Male ([1]; measured conc. 14.5 μg/L): 1.09%
HSI Female ([1]; measured conc. 14.5 μg/L): 4.6%
HSI Male ([1]; measured conc. 14.5 μg/L): 1.7%
Length Female ([1]; measured conc. 14.5 μg/L): 35.2 mm
Length Male ([1]; measured conc. 14.5 μg/L): 34.8 mm
Weight Female ([1]; measured conc. 14.5 μg/L): 447 mg
Weight Male ([1]; measured conc. 14.5 μg/L): 455 mg
Fertility rate (%) ([1]; measured conc. 43.9 μg/L): 94%
Mortality (%) Female ([1]; measured conc. 43.9 μg/L): 0%
Mortality (%) Male ([1]; measured conc. 43.9 μg/L): 0%
Number of fertilized eggs ([1]; measured conc. 43.9 μg/L): 22
Number of total eggs ([1]; measured conc. 43.9 μg/L): 23 ± 5.3 /female/day
SSC Female ([1]; measured conc. 43.9 μg/L): 0 ± 0
SSC Male ([1]; measured conc. 43.9 μg/L): 95 ± 16
VTG (ng/mg of liver) Female ([1]; measured conc. 43.9 μg/L): 816 ± 278 ng/mg of liver
VTG (ng/mg of liver) Male ([1]; measured conc. 43.9 μg/L): 10 ± 12 ng/mg of liver
GSI Female ([1]; measured conc. 43.9 μg/L): 10.7%
GSI Male ([1]; measured conc. 43.9 μg/L): 1.24%
HSI Female ([1]; measured conc. 43.9 μg/L): 4.7%
HSI Male ([1]; measured conc. 43.9 μg/L): 1.7%
Length Female ([1]; measured conc. 43.9 μg/L): 35.0 mm
Length Male ([1]; measured conc. 43.9 μg/L): 34.4 mm
Weight Female ([1]; measured conc. 43.9 μg/L): 445 mg
Weight Male ([1]; measured conc. 43.9 μg/L): 427 mg
Fertility rate (%) ([1]; measured conc. 137 μg/L): 90%
Mortality (%) Female ([1]; measured conc. 137 μg/L): 0%
Mortality (%) Male ([1]; measured conc. 137 μg/L): 0%
Number of fertilized eggs ([1]; measured conc. 137 μg/L): 19
Number of total eggs ([1]; measured conc. 137 μg/L): 21 ± 4.3 /female/day
SSC Female ([1]; measured conc. 137 μg/L): 0 ± 0
SSC Male ([1]; measured conc. 137 μg/L): 108 ± 16
VTG (ng/mg of liver) Female ([1]; measured conc. 137 μg/L): 651 ± 217 ng/mg of liver
VTG (ng/mg of liver) Male ([1]; measured conc. 137 μg/L): 3.6 ± 2.3 ng/mg of liver
GSI Female ([1]; measured conc. 137 μg/L): 10.6%
GSI Male ([1]; measured conc. 137 μg/L): 1.40%
HSI Female ([1]; measured conc. 137 μg/L): 4.5%
HSI Male ([1]; measured conc. 137 μg/L): 1.5%
Length Female ([1]; measured conc. 137 μg/L): 34.8 mm
Length Male ([1]; measured conc. 137 μg/L): 34.4 mm
Weight Female ([1]; measured conc. 137 μg/L): 437 mg
Weight Male ([1]; measured conc. 137 μg/L): 425 mg
Fertility rate (%) ([1]; measured conc. 453 μg/L): 84%
Mortality (%) Female ([1]; measured conc. 453 μg/L): 0%
Mortality (%) Male ([1]; measured conc. 453 μg/L): 0%
Number of fertilized eggs ([1]; measured conc. 453 μg/L): 17
Number of total eggs ([1]; measured conc. 453 μg/L): 20 ± 5.9 /female/day
SSC Female ([1]; measured conc. 453 μg/L): 0 ± 0
SSC Male ([1]; measured conc. 453 μg/L): 102 ± 17
VTG (ng/mg of liver) Female ([1]; measured conc. 453 μg/L): 111 ± 92 ng/mg of liver
VTG (ng/mg of liver) Male ([1]; measured conc. 453 μg/L): 3.9 ± 8.6 ng/mg of liver
GSI Female ([1]; measured conc. 453 μg/L): 12.0%
GSI Male ([1]; measured conc. 453 μg/L): 1.46%
HSI Female ([1]; measured conc. 453 μg/L): 4.7%
HSI Male ([1]; measured conc. 453 μg/L): 1.8%
Length Female ([1]; measured conc. 453 μg/L): 34.8 mm
Length Male ([1]; measured conc. 453 μg/L): 34.9 mm
Weight Female ([1]; measured conc. 453 μg/L): 455 mg
Weight Male ([1]; measured conc. 453 μg/L): 455 mg
effect on fecundity (number of total eggs), in words ([1]; within the test concentrations, 21-day exposure): No effect
LOEC on SSC in females (Japanese medaka): 33 µg/L
LOEC on reproduction (fecundity and/or fertility) (Japanese medaka; long-term exposure): 253 µg/L
nominal concentration with significant decrease in nuptial tubercle number in males (fathead minnow): 900 µg/L
mARβ antagonist activity (in words) (medaka ARβ (mARβ)): inhibited
